Like-named read-outs stand apart in the source and are kept apart here.
Test system: laminitis
Type: in vivo, horse

With CC(=O)Oc1cc2c(s1)CCN(C(C(=O)C1CC1)c1ccccc1F)C2 (stereo not drawn) [Prasugrel] the Therapy progress (Example 1: 8 year old Shetty-gelding, acute attack, initial 20 mg Prasugrel + 1000 mg acetylsalicylic acid per 60 kg, then 10 mg + 500 mg per 60 kg twice a day, change in feeding, day 2) was “distinct pulsation in all 4 legs; the horse is more interested in its surrounding”, the Therapy progress (Example 1: Shetty-gelding, Prasugrel in combination with acetylsalicylic acid, day 3) was “pulsation in the front legs less, in the back legs the same; horse comes when it is called” and the “1. Follow-up examination” value (Example 1: Shetty-gelding, Prasugrel in combination with acetylsalicylic acid, day 4) was “day 4: pulsation in all 4 legs; horse walks with medium grade turning pain”. The “2. Follow-up examination: signs of laminitis” value (Example 1: Shetty-gelding, Prasugrel in combination with acetylsalicylic acid, day 6) was “no signs of laminitis”, the “2. Follow-up examination: hoof ulcers” value (Example 1: Shetty-gelding, Prasugrel in combination with acetylsalicylic acid, day 8) was “no hoof ulcers observable” and the “2. Follow-up examination: recurrence of laminitis” value (Example 1: Shetty-gelding, after stop of treatment on day 10, change of feeding kept) was “no more laminitis occurred”. The Therapy progress (Example 2: 8 year old Shetty-mare, per 60 kg 10 mg Prasugrel + 500 mg acetylsalicylic acid twice a day, change in feeding, from day 3 on) was “light amelioration”, the “Therapy progress: pulsation” value (Example 2: Shetty-mare, Prasugrel in combination with acetylsalicylic acid, from day 7 on) was “no pulsation anymore sensible” and the “Therapy progress: pulsation” value (Example 2: Shetty-mare, Prasugrel in combination with acetylsalicylic acid, until day 5) was “pulsation clearly sensible”. For the same compound, the Follow-up examination (Example 2: Shetty-mare, 1 month later (treatment stopped on day 14)) was “no pulsation; attitude without pathological findings”, the Therapy progress (Example 3: 12 year old Pony-gelding, 10 mg Prasugrel + 500 mg acetylsalicylic acid per 60 kg twice a day, change in feeding, from day 2 on) was “light amelioration” and the “Therapy progress: movement” value (Example 3: Pony-gelding, Prasugrel in combination with acetylsalicylic acid, day 6) was “pony walks still restrained”. The “Therapy progress: movement” value (Example 3: Pony-gelding, Prasugrel in combination with acetylsalicylic acid, day 10) was “unlimited movement”, the “Therapy progress: pulsation” value (Example 3: Pony-gelding, Prasugrel in combination with acetylsalicylic acid, from day 4 on) was “no pulsation anymore sensible” and the Therapy progress (Example 4: 8 year old Shetty-gelding, acute attack, 10 mg Prasugrel + 500 mg acetylsalicylic acid per 60 kg twice a day, change in feeding, day 3) was “pony standing in bran, but still heavy pain on all 4 legs”. For the same compound, the Therapy progress (Example 4: Shetty-gelding, Prasugrel in combination with acetylsalicylic acid, day 5) was “clear amelioration of its attitude; less pulsation”, the “Therapy progress: pulsation” value (Example 4: Shetty-gelding, Prasugrel in combination with acetylsalicylic acid, from day 10 on) was “no pulsation sensible anymore” and the “Follow-up examination: outcome of pregnancy” value (in vivo) was “normal birth of a healthy foal”.

Source: patent EP2497475A1, “Treatment of laminitis with platelet aggregation inhibitors” (priority 2011, dated 2012)
